Biological target: Human Factor D (Homo sapiens (Human), UniProt P00746)
Assay: Human Factor D Assay
Format: biochemical
Details: Factor D inhibition, assay of Example 10; read-out: IC5 (Stars)
How it was run: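 Serum-purified Factor D (80 nM final) preincubated 5 min at room temperature with compound in 50 mM Tris, 1 M NaCl, pH 7.5. Z-L-Lys-SBz and DTNB added at 100 μM each; A405 followed every 30 s for 30 min. IC50 from nonlinear regression of rates versus concentration.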

Human Factor D, sequence (P00746 26-253): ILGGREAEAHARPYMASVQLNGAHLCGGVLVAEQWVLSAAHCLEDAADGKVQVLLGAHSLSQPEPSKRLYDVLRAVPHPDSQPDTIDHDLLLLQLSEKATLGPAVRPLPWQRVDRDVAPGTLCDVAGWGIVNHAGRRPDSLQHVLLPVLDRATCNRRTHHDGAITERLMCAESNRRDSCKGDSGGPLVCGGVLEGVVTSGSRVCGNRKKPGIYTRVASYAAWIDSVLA

Compound	IC50 [nM]
CC(=O)c1nn(CC(=O)N2[C@H](C(=O)N[C@@H](C)c3cccc(Cl)c3F)C[C@@]3(C)C[C@@H]23)c2ccc(-c3cnc(C)nc3)cc12 [Compound 590, (1R,3S,5R)-2-(2-(3-acetyl-5-(2-methylpyrimidin-5-yl)-1H-indazol-1-yl)acetyl)-N-((S)-1-(3-chloro-2-fluorophenyl)ethyl)-5-methyl-2-azabicyclo[3.1.0]hexane-3-carboxamide]	< 1000
CC(=O)c1nn(CC(=O)N2[C@H](C(=O)NCc3ccncn3)C[C@@]3(C)C[C@@H]23)c2c(C)cc(-c3cnc(C)nc3)cc12 [Compound 592, (1R,3S,5R)-2-(2-(3-acetyl-7-methyl-5-(2-methylpyrimidin-5-yl)-1H-indazol-1-yl)acetyl)-5-methyl-N-(pyrimidin-4-ylmethyl)-2-azabicyclo[3.1.0]hexane-3-carboxamide]	1000 to 10000
CC(=O)c1nn(CC(=O)N2[C@H](C(=O)N[C@@H](C)c3ccc(C)cc3)C[C@@]3(C)C[C@@H]23)c2ccc(-c3cnc(C)nc3)cc12 [Compound 598, (1R,3S,5R)-2-(2-(3-acetyl-5-(2-methylpyrimidin-5-yl)-1H-indazol-1-yl)acetyl)-5-methyl-N-((S)-1-(p-tolyl)ethyl)-2-azabicyclo[3.1.0]hexane-3-carboxamide]	1000 to 10000
CC(=O)c1nn(CC(=O)N2[C@H](C(=O)N[C@@H](C)c3cccc(Cl)c3)C[C@@]3(C)C[C@@H]23)c2ccc(-c3cnc(C)nc3)cc12 [Compound 599, (1R,3S,5R)-2-(2-(3-acetyl-5-(2-methylpyrimidin-5-yl)-1H-indazol-1-yl)acetyl)-N-((S)-1-(3-chlorophenyl)ethyl)-5-methyl-2-azabicyclo[3.1.0]hexane-3-carboxamide]	< 1000
CC(=O)c1nn(CC(=O)N2[C@H](C(=O)N[C@@H](C)c3ccccc3F)C[C@@]3(C)C[C@@H]23)c2ccc(-c3cnc(C)nc3)cc12 [Compound 600, (1R,3S,5R)-2-(2-(3-acetyl-5-(2-methylpyrimidin-5-yl)-1H-indazol-1-yl)acetyl)-N-((S)-1-(2-fluorophenyl)ethyl)-5-methyl-2-azabicyclo[3.1.0]hexane-3-carboxamide]	< 1000
CC(=O)c1nn(CC(=O)N2[C@H](C(=O)N[C@H](C)c3cccc(Cl)c3F)C[C@@]3(C)C[C@@H]23)c2ccc(-c3cnc(C)nc3)cc12 [Compound 601, (1R,3S,5R)-2-(2-(3-acetyl-5-(2-methylpyrimidin-5-yl)-1H-indazol-1-yl)acetyl)-N-((R)-1-(3-chloro-2-fluorophenyl)ethyl)-5-methyl-2-azabicyclo[3.1.0]hexane-3-carboxamide]	< 1000
CC(=O)c1nn(CC(=O)N2[C@H](C(=O)NCCC3CCOCC3)C[C@@]3(C)C[C@@H]23)c2c(C)cc(-c3cnc(C)nc3)cc12 [Compound 606, (1R,3S,5R)-2-(2-(3-acetyl-7-methyl-5-(2-methylpyrimidin-5-yl)-1H-indazol-1-yl)acetyl)-5-methyl-N-(2-(tetrahydro-2H-pyran-4-yl)ethyl)-2-azabicyclo[3.1.0]hexane-3-carboxamide]	1000 to 10000
CC(=O)c1nn(CC(=O)N2[C@H](C(=O)NCCN3CCOCC3)C[C@@]3(C)C[C@@H]23)c2c(C)cc(-c3cnc(C)nc3)cc12 [Compound 607, (1R,3S,5R)-2-(2-(3-acetyl-7-methyl-5-(2-methylpyrimidin-5-yl)-1H-indazol-1-yl)acetyl)-5-methyl-N-(2-morpholinoethyl)-2-azabicyclo[3.1.0]hexane-3-carboxamide]	1000 to 10000

Same assay, conditions: Table 6; Factor D 80 nM, substrate Z-L-Lys-SBz; read-out: IC50

Compound	IC50 [nM]
(1R,3S,5S)-2-(2-(3-Acetyl-5-(2-methylpyrimidin-5-yl)-1H-indazol-1-yl)acetyl)-N-(6-bromo-3-(methoxymethyl)pyridin-2-yl)-5-(methoxymethyl)-2-azabicyclo[3.1.0]hexane-3-carboxamide [Compound 49]	< 1000
